This note sets out measurements from US8946273B2, “S-Triazolyl alpha-mercapto acetanilides as inhibitors of HIV reverse transcriptase” (priority 2011, dated 2015).

Assay [1] relates to wild type HIV-1. The assay can be described thus: microbe, parasite or virus in culture. Format: cell-based, human immunodeficiency virus type 1 (HIV-1).
Assay [2] deals with T1, wild-type HIV reverse transcriptase (Human immunodeficiency virus type 1 group M subtype B, UniProt P04585).
T1 construct: wild-type and four mutant HIV reverse transcriptases
Put plainly: Activity on wild type reverse transcriptase (Table 1 IC50 WT). Format: biochemical. The method, then: Using similar methods as described above, 2-[5-bromo-4-(4-cyclopropylnaphthalen-1-yl)-4H-[1,2,4]triazol-3-ylsulfanyl]-N-(2-methyl-4-sulfamoylphenyeacetamide and 2-[5-bromo-4-(4-ethylnaphthalen-1-yl)-4H-[1,2,4]triazol-3-ylsulfanyl]-N-(2-chloro-4-sulfamoylphenyl)-acetamide were synthesized, as were the N-4-carbamyl analog, 2-[5-bromo-4-(4-ethyl-naphthalen-1-yl)-4H-[1,2,4]triazol-3-ylsulfanyl]-N-(2-chloro-4-carbamoylphenyl)-acetamide and the N-4-carboxyl analog. Each of the compounds was tested against a panel of mutant HIV reverse transcriptases, including 20 of the 22 of the mutants that are found in about 2% or more of the patient samples that are resistant to the most widely used non-nucleoside HIV-RT inhibitor efavirenz ((4S)-6-chloro-4-(cyclopropylethynyl)-1,4-dihydro-4-(trifluoromethyl)-2H-3,1-benzoxazin-2-one). […] In most cases both criteria were met. […] […].
Compounds of the invention were tested against the wild-type and four mutant HIV reverse transcriptases. The results are listed in Table 1 as EC50 (nM) and IC50 (nM). In the Table, A represents <50 nM, B is between 50 and 100 nM, and C is >100 nM. ND is not determined.

For assay [3], the target named is mutant HIV reverse transcriptases (Human immunodeficiency virus type 1, UniProt P12497, Y768C, cells depend on it). In kind it is cell-based.
Assay [4] deals with mutant HIV reverse transcriptases (Human immunodeficiency virus type 1, UniProt P12497, Y775L, cells depend on it). Format: cell-based.
[5] abbreviates: Human immunodeficiency virus 1, Hela-JC53, read-out: EC50 WT.

Where two headings read alike, the source gives them in different places.

With `CCc1ccc(-n2c(SCC(=O)Nc3ccc(C(=O)O)cc3Cl)nnc2C(F)(F)F)c2ccccc12` [compound 16], the values for the EC50 in assay [1] (setting [5]), in assay [3] and in assay [4] were under 50 nM, 50 to 100 nM and over 100 nM, respectively. The same molecule came in with an IC50 in assay [2] of under 50 nM.

Take `CCc1ccc(-n2c(CF)nnc2SCC(=O)Nc2ccc(C(=O)O)cc2Cl)c2ccccc12` [compound 17]: the EC50 in assay [1] (setting [5]) was under 50 nM; in assay [3] it was under 50 nM; in assay [4], over 100 nM. The IC50 in assay [2] is under 50 nM.

`COc1ccc2c(C3CC3)ccc(-n3c(Br)nnc3SCC(=O)Nc3ccc(S(=O)(=O)O)cc3Cl)c2c1` [compound 19]: the EC50 in assay [1] (read-out: EC50 WT, wild-type (WT) HIV-1) is 50 to 100 nM; in assay [3] it was 50 to 100 nM; in assay [4] it was over 100 nM. In assay [2] (read-out: IC50 WT RT, wild-type (WT) RT), the IC50 was under 50 nM.

`CCc1ccc(-n2c(Br)nnc2SCC(=O)Nc2ccc(S(=O)(=O)O)cc2Br)c2ccccc12` [compound 20]: the concentration giving a half-maximal response (EC50) in assay [1] (setting [5]), in assay [3] and in assay [4] was over 100 nM throughout. The same molecule registered an IC50 in assay [2] of under 50 nM.

Regarding `O=C(CSc1nnc(Br)n1-c1ccc(C2CC2)cc1Cl)Nc1ccc(S(=O)(=O)O)cc1Cl` [compound 21], the values for the EC50 in assay [1] (setting [5]), in assay [3] and in assay [4] were 50 to 100 nM, over 100 nM and over 100 nM, respectively. Further, the IC50 in assay [2] was under 50 nM.

Consider `CCc1ccc(-n2c(Br)nnc2SCC(=O)Nc2ccc(C(=O)O)cc2Br)c2ccccc12` [compound 22], for which the EC50 in assay [1] (setting [5]) was under 50 nM; in assay [3], under 50 nM; in assay [4], 50 to 100 nM. In assay [2], this molecule showed an IC50 of under 50 nM.

Turning to `Cc1cc(C2CC2)c2ccccc2c1-n1c(Br)nnc1SCC(=O)Nc1ccc(C(=O)O)cc1Cl` [compound 23], the EC50 in assay [1] (setting [5]), in assay [3] and in assay [4] was under 50 nM throughout. The IC50 in assay [2] is under 50 nM.

Take `O=C(CSc1nnc(Br)n1-c1ccc(C2CC2)cc1OC(F)(F)F)Nc1ccc(S(=O)(=O)O)cc1Cl` [compound 24]: the EC50 in assay [1] (setting [5]), in assay [3] and in assay [4] was over 100 nM each time. In addition, the IC50 in assay [2] was under 50 nM.

On to `O=C(CSc1nnc(Br)n1-c1c(Cl)cc(C2CCC2)c2ccccc12)Nc1ccc(C(=O)O)cc1Cl` [compound 25], for which the EC50 in assay [1] (setting [5]), in assay [3] and in assay [4] was under 50 nM in each case. The IC50 in assay [2] is under 50 nM.

In the case of `O=C(CSc1nnc(Br)n1-c1ccc(C2CCC2)c2ccccc12)Nc1ccc(C(=O)O)cc1Cl` [compound 26], the EC50 in assay [1] (setting [5]), in assay [3] and in assay [4] was under 50 nM in each case. The IC50 in assay [2] is under 50 nM.

As for `COc1cccc2c(-n3c(Br)nnc3SCC(=O)Nc3ccc(C(=O)O)cc3Cl)cccc12` [compound 27], the values for the EC50 in assay [1] (setting [5]), in assay [3] and in assay [4] were under 50 nM, under 50 nM and over 100 nM, respectively. The molecule further showed an IC50 in assay [2] of under 50 nM.

As for `CCc1cc(C2CC2)ccc1-n1c(Br)nnc1SCC(=O)Nc1ccc(C(=O)O)cc1Cl` [compound 29], the results for the EC50 in assay [1] (setting [5]), in assay [3] and in assay [4] were under 50 nM, under 50 nM and over 100 nM, respectively. Besides, the IC50 in assay [2] was under 50 nM.

Consider `O=C(CSc1nnc(Br)n1-c1ccc(C2CC2)cc1C(F)(F)F)Nc1ccc(C(=O)O)cc1Cl` [compound 30], for which the EC50 in assay [1] (setting [5]) is under 50 nM; in assay [3], under 50 nM; in assay [4], over 100 nM. Also, in assay [2], the IC50 is under 50 nM.

Turning to `O=C(CSc1nnc(Br)n1-c1ccc(C2CC2)cc1Cl)Nc1ccc(C(=O)O)cc1Cl` [compound 31], the EC50 in assay [1] (setting [5]) is under 50 nM; in assay [3], under 50 nM; in assay [4], over 100 nM. In addition, the half-inhibitory concentration (IC50) in assay [2] was under 50 nM.

Turning to `O=C(CSc1nnc(Br)n1-c1cccc2c(OCC3CC3)cccc12)Nc1ccc(C(=O)O)cc1Cl` [compound 32], the EC50 in assay [1] (setting [5]), in assay [3] and in assay [4] was over 100 nM each time. The molecule also gave an IC50 in assay [2] of over 100 nM.

Regarding `Cc1cc(C2CC2)cc(C)c1-n1c(Br)nnc1SCC(=O)Nc1ccc(C(=O)O)cc1Cl` [compound 33], the results for the EC50 in assay [1] (setting [5]), in assay [3] and in assay [4] were under 50 nM, under 50 nM and over 100 nM, respectively. Besides, in assay [2], the IC50 was under 50 nM.

Turning to `NS(=O)(=O)c1ccc(NC(=O)CSc2nnc(C(F)F)n2-c2ccc3c4c(cccc24)CC3)c(Cl)c1` [compound 36], the EC50 in assay [1] (setting [5]), in assay [3] and in assay [4] was under 50 nM throughout. Also, the IC50 in assay [2] is under 50 nM.

For the molecule `NS(=O)(=O)c1ccc(NC(=O)CSc2nnc(Br)n2-c2ccc3c4c(cccc24)CC3)c(Cl)c1` [compound 37], the EC50 in assay [1] (setting [5]), in assay [3] and in assay [4] was under 50 nM each time. In assay [2], this molecule registered an IC50 of under 50 nM.

As for `Cc1cc(S(N)(=O)=O)ccc1NC(=O)CSc1nnc(Br)n1-c1ccc2c3c(cccc13)CC2` [compound 38], the EC50 in assay [1] (setting [5]), in assay [3] and in assay [4] was under 50 nM in each case. In assay [2], this molecule had an IC50 of under 50 nM.

Consider `Cc1cc(S(N)(=O)=O)ccc1NC(=O)CSc1nnc(Br)n1-c1ccc(C2CC2)c2ccccc12` [compound 40], for which the EC50 in assay [1] (setting [5]), in assay [3] and in assay [4] was under 50 nM throughout. In addition, the IC50 in assay [2] was under 50 nM.

For the molecule `CCc1ccc(-n2c(C)nnc2SCC(=O)Nc2ccc(S(N)(=O)=O)cc2C)c2c1CCCC2` [compound 41], the EC50 in assay [1] (setting [5]) was under 50 nM; in assay [3] it was under 50 nM; in assay [4], over 100 nM. In assay [2], this molecule displayed an IC50 of under 50 nM.

With `CCc1ccc(-n2c(C)nnc2SCC(=O)Nc2ccc(S(N)(=O)=O)cc2Cl)c2c1CCCC2` [compound 43], the EC50 in assay [1] (setting [5]), in assay [3] and in assay [4] was under 50 nM in each case. The molecule also showed an IC50 in assay [2] of under 50 nM.

With `NS(=O)(=O)c1ccc(NC(=O)CSc2nnc(C(F)F)n2-c2ccc(C3CC3)c3ccccc23)c(Cl)c1` [compound 44], the EC50 in assay [1] (setting [5]), in assay [3] and in assay [4] was under 50 nM in each case. Further, in assay [2], the IC50 is under 50 nM.

On to `Cc1cc(S(N)(=O)=O)ccc1NC(=O)CSc1nnc(C)n1-c1ccc(C)c2c1CCCC2` [compound 45], for which the EC50 in assay [1] (setting [5]) is under 50 nM; in assay [3] it was under 50 nM; in assay [4], 50 to 100 nM. Moreover, the IC50 in assay [2] was under 50 nM.

As to `Cc1ccc(-n2c(C)nnc2SCC(=O)Nc2ccc(S(N)(=O)=O)cc2Cl)c2c1CCCC2` [compound 46], the EC50 in assay [1] (setting [5]), in assay [3] and in assay [4] was under 50 nM each time. In assay [2], this molecule gave an IC50 of under 50 nM.

`CCc1ccc(-n2c(SCC(=O)Nc3ccc(S(N)(=O)=O)cc3Cl)nnc2C(F)F)c2c1CCCC2` [compound 47]: the EC50 in assay [1] (setting [5]), in assay [3] and in assay [4] was under 50 nM each time. In assay [2], the IC50 is under 50 nM.

For the molecule `Cc1cc(S(N)(=O)=O)ccc1NC(=O)CSc1nnc(C(F)F)n1-c1ccc(C)c2c1CCCC2` [compound 48], the EC50 in assay [1] (setting [5]) is under 50 nM; in assay [3], under 50 nM; in assay [4], 50 to 100 nM. The IC50 in assay [2] is under 50 nM.

Consider `CCc1ccc(-n2c(CF)nnc2SCC(=O)Nc2ccc(S(N)(=O)=O)cc2C)c2ccccc12` [compound 49], for which the EC50 in assay [1] (setting [5]) is under 50 nM; in assay [3], under 50 nM; in assay [4] it was over 100 nM. Further, the 50% inhibitory concentration (IC50) in assay [2] is under 50 nM.

Consider `Cc1cc(C2CC2)c2ccccc2c1-n1c(Br)nnc1SCC(=O)Nc1ccc(S(N)(=O)=O)cc1Cl` [compound 50], for which the EC50 in assay [1] (setting [5]), in assay [3] and in assay [4] was under 50 nM each time. The IC50 in assay [2] was under 50 nM.

As to `CNS(=O)(=O)c1ccc(NC(=O)CSc2nnc(C(F)F)n2-c2ccc(C)c3c2CCCC3)c(Cl)c1` [compound 51], the EC50 in assay [1] (setting [5]), in assay [3] and in assay [4] was under 50 nM in each case. In assay [2], this molecule had an IC50 of under 50 nM.

In the case of `Cc1cc(S(N)(=O)=O)ccc1NC(=O)CSc1nnc(CF)n1-c1c(C)cc(C)c2ccccc12` [compound 52], the EC50 in assay [1] (setting [5]), in assay [3] and in assay [4] was under 50 nM each time. The IC50 in assay [2] was under 50 nM.

As for `CNS(=O)(=O)c1ccc(NC(=O)CSc2nnc(C(F)F)n2-c2ccc(C)c3ccccc23)c(Cl)c1` [compound 54], the values for the EC50 in assay [1] (setting [5]), in assay [3] and in assay [4] were under 50 nM, under 50 nM and 50 to 100 nM, respectively. In assay [2], the IC50 was under 50 nM.

Consider `CCc1ccc(-n2c(CF)nnc2SCC(=O)Nc2ccc(S(=O)(=O)NC)cc2Cl)c2ccccc12` [compound 55], for which the EC50 in assay [1] (setting [5]) was under 50 nM; in assay [3], under 50 nM; in assay [4], 50 to 100 nM. The IC50 in assay [2] is 50 to 100 nM.
